Reference: patent US20190092720A1, “FUNCTIONALIZED BENZAMIDE DERIVATIVES AS ANTIVIRAL AGENTS AGAINST HBV INFECTION” (BARUCH S. BLUMBERG INSTITUTE, priority 2012, published 2019)

Key:
[1] = system: HBV replication in AML12HBV10 cells; assay: Antiviral efficacy in AML12HBV10 cells (HBV DNA dot-blot hybridization); format: cell-based, Hepatitis B virus (HBV); conditions: Hepatitis B virus, AML12HBV10, 48 h, read-out: AML12HBV10 EC50, concentration that reduces the amount of HBV DNA by 50%, serial dilution 50 μM to 0.39 μM
Procedure: The HBV replication inhibitors of the present invention are capable of treating and preventing diseases associated with HBV infection.
The antiviral efficacy of the compounds of the disclosure, as presented in Table 1, were determined in AML12HBV10 cells. AML12HBV10 is an immortalized murine hepatocyte (AML12)-derived stable cell line that supports robust HBV replication in a tetracycline inducible manner (Xu et al.). The cells were seeded into 96 well plates at a density of 2×10^4 cells per well and cultured in DMEM/F12 media with 10% fetal bovine serum in the absence of tetracycline to allow pgRNA transcription and HBV DNA replication. One day after seeding, cells were left untreated or treated with a serial dilution of testing compounds, ranging from 50 μM to 0.39 μM, for 48 hours. Cells were then lysed by adding into each well of 100 μl lysis buffer containing 10 mM Tris-HCl (pH 7.6), 1 mM EDTA, 100 mM NaCl and 1% NP-40 and incubated at 37° C. for 30 minutes. Half amount (50 μl) of cell lysate from each well was combined with equal volume of denaturing solution containing 0.5N NaOH and 1.5M NaCl. After 5 minute incubation, 100 µl of neutralization solution (1M Tris-HCl, pH 7.4, 1.5M NaCl) was added into each well. The denatured cell lysates (totally 200 μl) were applied onto Nylon membrane using 96-well dot-blot manifold (Biorad). HBV DNA in the cell lysates were determined by dot-blot hybridization with alpha-^32P-UTP-labelled riboprobe specific for HBV minus strand DNA. The antiviral efficacy of a compound of the disclosure was expressed as the concentration that reduces the amount of HBV DNA by 50% (EC50).

HBV capsids = assay: Particle gel assay of nucleocapsids in AML12HBV10 cells; format: cell-based, Hepatitis B virus (HBV); conditions: 2 days, FIG. 1 panel B
Procedure: (§1) FIG. 1. Antiviral mechanism of the compounds of the present invention. AML12HBV10 cells were left untreated (NT) or treated with the indicated concentrations of the compounds of the disclosure Compound 6 and Compound 19, respectively, for 2 days. Bay-4109 (3 µM) or AT-61 (25 µM) served as positive controls. (A) Intracellular viral RNA was determined by Northern blot hybridization. Ribosomal RNA served as a loading control. (B) The total amounts of nucleocapsids were determined by a particle gel assay. (C) Encapsidated pgRNA were extracted and measured by Northern blot. (D) Nucleocapsid-associated HBV DNA was quantified by alkaline-treatment of nucleocapsids on the membrane following the particle gel assay and hybridized with a HBV-specific riboprobe. (E) HBV DNA replication intermediates were extracted and determined by Southern blot hybridizations.
(§2) Procedures of viral capsids and nucleocapsid-associated DNA analysis: AML12HB10 cells were lysed by addition of 300 μl buffer containing 10 mM Tris-HCl (pH7.6), 100 mM NaCl, 1 mM EDTA and 0.1% NP-40 to each well of 12-well plate. Cell debries were removed by centrifugation at 5000 g for 10 minutes. Ten microliters of the clarified cell lysates were fractionated by electrophoresis through nondenaturing 1% agarose gels and transferred to a nitrocellulose filter by blotting with TNE buffer (10 mM Tris-HCl, pH7.6; 150 mM NaCl and 1 mM EDTA). HBV capsids were detected by probing the membrane with an antibody against HBV core protein (DAKO). […] To detect capsid associated HBV DNA, the membrane were treated with buffer containing 0.5N NaOH and 1.5 M NaCl for 5 minutes and followed by neutralization with buffer containing 1 M TRIS-HCl and 1.5M NaCl for 5 minutes. The viral DNA was detected by hybridization with a α-^32P-UTP (800 Ci/mmol, Perkin Elmer) labeled minus strand specific full-length HBV riboprobe (Xu et al.).

[2] = Cytotoxicity in AML12HBV10 cells (MTT assay); format: cell-based, murine; conditions: mouse, concentration that reduces viability by 50%, serial dilution 50 μM to 0.39 μM
Procedure: Determination of cytotoxicity of compounds of the disclosure in AML12HBV10 cells: To determine the cytotoxicity of the compounds, AML12HBV10 cells were seeded into 96-well plates at a density of 2×10^4 cells per well and cultured in DMEM/F12 media with 10% fetal bovine serum in the absence of tetracycline to allow pgRNA transcription and HBV DNA replication. One day after seeding, cells were left untreated or treated with a serial dilution of testing compounds, ranging from 50 μM to 0.39 μM, for 48 hours. The cell viability was measured by a MTT assay, following procedure provided by the manufacturer (Promega). The cytotoxicity of a compound was expressed as the concentration of compound that reduces the viability of the cells by 50% (CC50).

[3] = system: capsid-associated HBV DNA; assay: Capsid-associated HBV DNA and DNA replication intermediates in AML12HBV10 cells; format: cell-based, Hepatitis B virus (HBV); conditions: 2 days, FIG. 1 panels D and E
Procedure: as §1, §2
To analyze the HBV DNA replication intermediates, cells were lysed by adding into each well of the 12-well plates 0.5 ml of lysis buffer containing 10 mM Tris-HCl (pH 8.0), 1 mM EDTA, 1% NP40 and 2% sucrose and incubating at 37° C. for 10 minutes. Cell debris and nuclei were removed by centrifugation and the supernatant was mixed with 130 μl of 35% polyethylene glycol (PEG) 8000 containing 1.5 M NaCl. After 1 hour incubation in ice, viral nucleocapsids were pelleted by centrifugation at 6,000×g for 5 minutes at 4° C., followed by 1 hour digestion at 37° C. in 400 μl of digestion buffer containing 0.5 mg/ml pronase (Calbiochem), 0.5% SDS, 150 mM NaCl, 25 mM Tris-HCl (pH 8.0) and 10 mM EDTA. The digestion mixture was extracted twice with phenol and DNA was precipitated with ethanol, dissolved in TE buffer (10 mM Tris-HCl, pH 8.0; 0.1 mM EDTA). […]

Structure (SMILES): O=C(Nc1cccc(Cl)c1)c1scc2c1OCCO2 [Entry 6]
- EC50 [1]: 400 nM
- capsid formation (HBV capsids): did not significantly affect
- CC50 at 48 h [2]: > 50000 nM
- capsid-associated HBV DNA / DNA synthesis [3]: reduced encapsidated pgRNA and capsid-associated HBV DNA in a dose-dependent manner
